Assay results as given in US10800791B2, “Triazole ACC inhibitors and uses thereof” (Gilead Apollo, LLC, priority 2015, dated 2020).
Values after ≈ are worked out from the molar mass of the structure shown. Read-outs that look alike come from different tables or passages of the source.

What was measured:
[1] = tested on: Fusarium virguliforme (Fv); assay: Growth inhibition assay of fungal pathogens, Fv; assay type: cell-based; conditions: 48 h
In short: (§1)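 Percent inhibition derived at 48 hours from OD600 and visual scores versus 2% DMSO control, with media+DMSO blank as background. Spore inocula in 17% V8 medium were sized from 48 h growth curves; compounds tested at final 50/10/2 or 2/0.4/0.08 ppm.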

fungal (fACC2) = fungal (fACC2) (UniProt Q00955); conditions: read-out: fACC2 (in vitro ACC2 Inhibition Assay, IC50), ADP-Glo, 5 nM ACC2, 20 μM ATP, 20 μM acetyl-CoA
fungal (fACC2), sequence (Q00955 whole entry): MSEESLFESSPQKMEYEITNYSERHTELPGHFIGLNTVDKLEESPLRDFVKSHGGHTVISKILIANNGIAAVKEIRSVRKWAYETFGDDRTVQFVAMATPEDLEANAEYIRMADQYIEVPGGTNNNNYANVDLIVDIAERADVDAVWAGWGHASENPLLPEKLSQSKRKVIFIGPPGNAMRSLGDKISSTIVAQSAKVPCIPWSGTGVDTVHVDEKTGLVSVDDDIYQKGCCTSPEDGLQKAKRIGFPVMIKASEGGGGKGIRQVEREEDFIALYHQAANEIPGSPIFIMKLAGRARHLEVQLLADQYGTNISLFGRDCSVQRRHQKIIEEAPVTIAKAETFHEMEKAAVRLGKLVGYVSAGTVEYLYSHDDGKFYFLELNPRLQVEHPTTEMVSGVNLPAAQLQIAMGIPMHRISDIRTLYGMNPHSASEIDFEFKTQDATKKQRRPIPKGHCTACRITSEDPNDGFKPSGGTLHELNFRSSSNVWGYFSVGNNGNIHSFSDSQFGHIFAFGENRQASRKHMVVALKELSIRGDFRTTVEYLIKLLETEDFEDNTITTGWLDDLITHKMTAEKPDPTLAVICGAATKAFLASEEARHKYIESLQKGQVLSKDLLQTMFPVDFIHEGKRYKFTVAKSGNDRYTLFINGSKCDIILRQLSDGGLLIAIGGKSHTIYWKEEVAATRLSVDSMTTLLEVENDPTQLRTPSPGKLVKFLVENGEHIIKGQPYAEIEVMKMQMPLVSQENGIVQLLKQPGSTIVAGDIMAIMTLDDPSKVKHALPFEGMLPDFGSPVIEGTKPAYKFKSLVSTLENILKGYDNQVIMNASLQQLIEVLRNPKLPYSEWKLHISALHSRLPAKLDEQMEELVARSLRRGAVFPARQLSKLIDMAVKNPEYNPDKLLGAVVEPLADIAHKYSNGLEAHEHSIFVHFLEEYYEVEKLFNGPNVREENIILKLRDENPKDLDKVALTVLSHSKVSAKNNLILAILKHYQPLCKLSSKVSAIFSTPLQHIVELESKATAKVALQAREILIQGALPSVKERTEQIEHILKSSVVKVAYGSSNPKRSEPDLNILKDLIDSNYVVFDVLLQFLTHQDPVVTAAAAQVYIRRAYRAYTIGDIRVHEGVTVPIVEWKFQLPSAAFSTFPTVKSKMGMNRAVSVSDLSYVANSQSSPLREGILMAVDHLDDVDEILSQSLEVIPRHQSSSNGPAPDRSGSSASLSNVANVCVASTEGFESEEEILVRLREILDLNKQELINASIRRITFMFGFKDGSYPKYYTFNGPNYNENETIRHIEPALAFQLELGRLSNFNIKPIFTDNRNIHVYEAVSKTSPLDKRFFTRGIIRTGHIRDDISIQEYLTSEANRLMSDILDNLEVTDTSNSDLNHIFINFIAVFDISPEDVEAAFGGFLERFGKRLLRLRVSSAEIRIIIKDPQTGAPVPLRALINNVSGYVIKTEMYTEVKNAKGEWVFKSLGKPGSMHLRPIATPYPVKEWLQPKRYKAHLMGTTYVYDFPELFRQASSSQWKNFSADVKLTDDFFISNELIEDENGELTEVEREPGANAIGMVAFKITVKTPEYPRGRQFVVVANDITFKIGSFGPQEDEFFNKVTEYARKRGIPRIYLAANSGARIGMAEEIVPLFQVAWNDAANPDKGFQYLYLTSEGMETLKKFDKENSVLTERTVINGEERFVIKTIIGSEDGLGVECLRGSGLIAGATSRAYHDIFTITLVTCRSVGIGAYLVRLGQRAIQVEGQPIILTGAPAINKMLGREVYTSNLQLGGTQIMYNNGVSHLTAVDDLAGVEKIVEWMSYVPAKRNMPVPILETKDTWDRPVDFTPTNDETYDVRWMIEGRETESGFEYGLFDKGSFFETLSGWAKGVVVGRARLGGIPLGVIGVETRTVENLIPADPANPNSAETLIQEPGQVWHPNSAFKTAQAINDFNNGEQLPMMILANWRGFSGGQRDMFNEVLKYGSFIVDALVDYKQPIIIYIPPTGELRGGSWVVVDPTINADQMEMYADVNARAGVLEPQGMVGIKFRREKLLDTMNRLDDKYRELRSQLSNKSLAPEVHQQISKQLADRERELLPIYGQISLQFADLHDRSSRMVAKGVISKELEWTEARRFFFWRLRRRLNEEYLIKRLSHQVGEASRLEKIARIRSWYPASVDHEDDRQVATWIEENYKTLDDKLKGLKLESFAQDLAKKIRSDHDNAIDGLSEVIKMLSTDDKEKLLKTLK

Septoria tritici (St) = assay: Growth inhibition assay of fungal pathogens, St; assay type: cell-based; conditions: Zymoseptoria tritici, 48 h
In short: as §1

human (hACC2) = human (hACC2) (Homo sapiens, UniProt O00763); assay: In vitro ACC inhibition assay (ADP-Glo), hACC2; assay type: biochemical; conditions: 5 nM ACC2, 20 μM ATP, 20 μM acetyl-CoA
human (hACC2), sequence (O00763 whole entry): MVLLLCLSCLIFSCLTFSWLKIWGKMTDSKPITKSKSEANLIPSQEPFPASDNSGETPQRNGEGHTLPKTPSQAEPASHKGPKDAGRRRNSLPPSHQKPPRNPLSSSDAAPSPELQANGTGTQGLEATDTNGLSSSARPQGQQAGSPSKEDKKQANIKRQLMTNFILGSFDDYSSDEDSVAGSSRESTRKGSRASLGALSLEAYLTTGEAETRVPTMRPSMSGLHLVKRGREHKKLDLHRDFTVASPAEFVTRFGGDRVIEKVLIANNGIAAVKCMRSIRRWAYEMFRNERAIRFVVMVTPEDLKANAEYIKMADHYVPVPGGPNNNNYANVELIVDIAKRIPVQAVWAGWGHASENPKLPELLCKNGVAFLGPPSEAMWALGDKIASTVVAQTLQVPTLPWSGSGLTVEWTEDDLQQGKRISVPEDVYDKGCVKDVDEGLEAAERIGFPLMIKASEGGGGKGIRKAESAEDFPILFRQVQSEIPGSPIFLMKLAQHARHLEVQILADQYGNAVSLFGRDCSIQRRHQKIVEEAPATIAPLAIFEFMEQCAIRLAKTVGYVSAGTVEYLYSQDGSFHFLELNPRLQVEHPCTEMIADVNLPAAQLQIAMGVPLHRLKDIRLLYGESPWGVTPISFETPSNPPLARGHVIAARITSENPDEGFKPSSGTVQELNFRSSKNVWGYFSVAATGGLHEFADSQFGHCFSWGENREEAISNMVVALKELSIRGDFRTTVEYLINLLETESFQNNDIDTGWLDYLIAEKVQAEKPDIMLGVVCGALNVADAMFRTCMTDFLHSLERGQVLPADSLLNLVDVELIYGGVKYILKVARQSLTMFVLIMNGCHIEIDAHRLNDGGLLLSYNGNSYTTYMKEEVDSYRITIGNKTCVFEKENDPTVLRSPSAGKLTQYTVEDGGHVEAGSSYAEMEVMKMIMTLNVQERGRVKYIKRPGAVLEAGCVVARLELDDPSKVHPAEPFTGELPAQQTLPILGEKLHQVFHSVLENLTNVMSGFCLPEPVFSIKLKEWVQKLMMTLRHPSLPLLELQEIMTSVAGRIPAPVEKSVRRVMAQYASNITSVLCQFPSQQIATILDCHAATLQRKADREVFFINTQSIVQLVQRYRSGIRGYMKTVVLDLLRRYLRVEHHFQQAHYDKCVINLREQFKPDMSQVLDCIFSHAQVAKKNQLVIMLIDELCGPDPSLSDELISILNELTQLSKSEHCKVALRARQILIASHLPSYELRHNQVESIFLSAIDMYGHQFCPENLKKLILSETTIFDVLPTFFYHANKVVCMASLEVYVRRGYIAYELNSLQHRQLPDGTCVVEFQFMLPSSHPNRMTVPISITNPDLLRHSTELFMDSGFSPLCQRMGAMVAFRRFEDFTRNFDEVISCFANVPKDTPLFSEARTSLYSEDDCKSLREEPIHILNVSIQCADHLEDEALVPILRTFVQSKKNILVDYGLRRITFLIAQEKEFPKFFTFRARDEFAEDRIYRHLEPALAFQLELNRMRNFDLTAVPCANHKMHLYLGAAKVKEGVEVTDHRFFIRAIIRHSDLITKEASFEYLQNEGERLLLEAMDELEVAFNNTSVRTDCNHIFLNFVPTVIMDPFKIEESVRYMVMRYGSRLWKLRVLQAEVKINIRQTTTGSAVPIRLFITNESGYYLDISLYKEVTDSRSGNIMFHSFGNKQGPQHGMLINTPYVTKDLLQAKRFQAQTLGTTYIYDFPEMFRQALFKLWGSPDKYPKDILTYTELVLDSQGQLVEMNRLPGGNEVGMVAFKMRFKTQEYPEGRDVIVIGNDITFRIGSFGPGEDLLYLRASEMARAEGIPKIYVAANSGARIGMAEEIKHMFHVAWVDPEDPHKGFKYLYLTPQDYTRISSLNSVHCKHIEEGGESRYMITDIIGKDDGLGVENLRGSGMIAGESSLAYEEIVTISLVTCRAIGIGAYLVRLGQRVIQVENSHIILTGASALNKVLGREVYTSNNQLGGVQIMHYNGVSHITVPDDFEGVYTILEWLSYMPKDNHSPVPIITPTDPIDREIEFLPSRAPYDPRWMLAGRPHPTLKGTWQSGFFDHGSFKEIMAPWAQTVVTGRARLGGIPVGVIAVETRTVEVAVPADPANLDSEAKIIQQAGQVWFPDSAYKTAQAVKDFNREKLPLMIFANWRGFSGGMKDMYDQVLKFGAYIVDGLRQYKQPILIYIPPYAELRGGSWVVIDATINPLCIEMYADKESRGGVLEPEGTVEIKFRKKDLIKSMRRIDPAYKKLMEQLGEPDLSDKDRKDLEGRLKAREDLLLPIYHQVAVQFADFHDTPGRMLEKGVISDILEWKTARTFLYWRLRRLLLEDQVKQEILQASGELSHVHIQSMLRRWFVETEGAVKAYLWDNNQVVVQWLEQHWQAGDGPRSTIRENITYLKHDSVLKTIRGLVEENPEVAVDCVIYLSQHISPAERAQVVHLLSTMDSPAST
Protocol: The detailed procedure is as follows. […] 10 μL ADP glo reagent was added. […] 20 μL kinase detection reagent was added.

C. albicans = assay: Antifungal Activity Assay (broth microtiter MIC), C. albicans; assay type: cell-based, Candida albicans; conditions: Candida albicans, ATCC90028, 48 h
In short: (§2)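 MICs were scored by eye at 48 h relative to the growth control. Plates followed CLSI M27-A3, with Candida suspensions in RPMI 1640+MOPS giving a final 2.5×10^3 CFU/mL; the colonies came from Sabouraud agar grown overnight at 35 °C.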

Rhizoctonia solani (Rs) = assay: Growth inhibition assay of fungal pathogens, Rs; assay type: cell-based; conditions: 48 h
Botrtyis cinerea (Bc) = assay: Growth inhibition assay of fungal pathogens, Bc; assay type: cell-based; conditions: 48 h
In short: as §1

[2] = tested on: Fusarium moniliforme (Fm); assay: Growth inhibition assay of fungal pathogens, Fm; assay type: cell-based; conditions: for IC90: Fusarium verticillioides, 48 h, read-out: Concentration at 90% Inhibition Fm
In short: as §1

Diplodia maydis (Dm) = assay: Growth inhibition assay of fungal pathogens, Dm; assay type: cell-based; conditions: Stenocarpella maydis, 48 h
In short: as §1

C. parapsilosis = assay: Antifungal Activity Assay (broth microtiter MIC), C. parapsilosis; assay type: cell-based, Candida parapsilosis; conditions: Lodderomyces parapsilosis, ATCC22019, 48 h
In short: as §2

[3] = read-out: Concentration at 90% Inhibition Fv, Fusarium virguliforme, growth inhibition at 48 hours vs 2% DMSO control
[4] = read-out: Concentration at 90% Inhibition Fv, Fusarium virguliforme, growth inhibition vs 2% DMSO control at 48 hours
[5] = read-out: Concentration at 90% Inhibition St, Septoria tritici, growth inhibition at 48 hours vs 2% DMSO control
[6] = read-out: Concentration at 90% Inhibition St, Septoria tritici, growth inhibition vs 2% DMSO control at 48 hours
[7] = read-out: MIC, C. albicans ATCC 90028, Table 3a, 3 replicates, MIC recorded at 48 h
[8] = read-out: MIC, C. albicans ATCC 90028, Table 3b (additional results), 3 replicates, MIC recorded at 48 h
[9] = read-out: Concentration at 90% Inhibition Rs, Rhizoctonia solani, mycelial plugs, growth inhibition at 48 hours vs 2% DMSO control
[10] = read-out: Concentration at 90% Inhibition Rs, Rhizoctonia solani, mycelial plugs, growth inhibition vs 2% DMSO control at 48 hours
[11] = read-out: Concentration at 90% Inhibition Bc, Botrtyis cinerea, growth inhibition at 48 hours vs 2% DMSO control
[12] = read-out: Concentration at 90% Inhibition Bc, Botrtyis cinerea, growth inhibition vs 2% DMSO control at 48 hours
[13] = Fusarium moniliforme, growth inhibition at 48 hours vs 2% DMSO control
[14] = read-out: Concentration at 90% Inhibition Dm, Diplodia maydis, growth inhibition at 48 hours vs 2% DMSO control
[15] = read-out: Concentration at 90% Inhibition Dm, Diplodia maydis, growth inhibition vs 2% DMSO control at 48 hours
[16] = read-out: MIC, C. parapsilosis ATCC 22019, Table 3a, 3 replicates, MIC recorded at 48 h
[17] = read-out: MIC, C. parapsilosis ATCC 22019, Table 3b (additional results), 3 replicates, MIC recorded at 48 h
[18] = growth inhibition at 48 hours vs 2% DMSO control, read-out: Concentration at 90% Inhibition Fv
[19] = growth inhibition vs 2% DMSO control at 48 hours, read-out: Concentration at 90% Inhibition Fv
[20] = Septoria tritici, growth inhibition at 48 hours vs 2% DMSO control, read-out: Concentration at 90% Inhibition St
[21] = Septoria tritici, growth inhibition vs 2% DMSO control at 48 hours, read-out: Concentration at 90% Inhibition St
[22] = Table 3a, ATCC 90028, 3 replicates, MIC recorded at 48 h, read-out: MIC, C. albicans ATCC 90028
[23] = Table 3b (additional results), ATCC 90028, 3 replicates, MIC recorded at 48 h, read-out: MIC, C. albicans ATCC 90028
[24] = mycelial plugs, growth inhibition at 48 hours vs 2% DMSO control, read-out: Concentration at 90% Inhibition Rs
[25] = mycelial plugs, growth inhibition vs 2% DMSO control at 48 hours, read-out: Concentration at 90% Inhibition Rs
[26] = Botrtyis cinerea, growth inhibition at 48 hours vs 2% DMSO control, read-out: Concentration at 90% Inhibition Bc
[27] = Botrtyis cinerea, growth inhibition vs 2% DMSO control at 48 hours, read-out: Concentration at 90% Inhibition Bc
[28] = Fusarium moniliforme, growth inhibition vs 2% DMSO control at 48 hours
[29] = Diplodia maydis, growth inhibition at 48 hours vs 2% DMSO control, read-out: Concentration at 90% Inhibition Dm
[30] = Diplodia maydis, growth inhibition vs 2% DMSO control at 48 hours, read-out: Concentration at 90% Inhibition Dm
[31] = Table 3a, ATCC 22019, 3 replicates, MIC recorded at 48 h, read-out: MIC, C. parapsilosis ATCC 22019
[32] = Table 3b (additional results), ATCC 22019, 3 replicates, MIC recorded at 48 h, read-out: MIC, C. parapsilosis ATCC 22019

Structure (SMILES)	IC90 [1, 3] [µg/mL]	IC90 [1, 4] [µg/mL]	IC50 (fungal (fACC2); Table 2a) [nM]	IC50 (fungal (fACC2); Table 2b, additional results) [nM]	IC90 (Septoria tritici (St); [5]) [µg/mL]	IC90 (Septoria tritici (St); [6]) [µg/mL]	IC50 (human (hACC2); Table 2a) [nM]	IC50 (human (hACC2); Table 2b, additional results) [nM]	MIC (C. albicans; [7]) [µg/mL]	MIC (C. albicans; [8]) [µg/mL]	IC90 (Rhizoctonia solani (Rs); [9]) [µg/mL]	IC90 (Rhizoctonia solani (Rs); [10]) [µg/mL]	IC90 (Botrtyis cinerea (Bc); [11]) [µg/mL]	IC90 (Botrtyis cinerea (Bc); [12]) [µg/mL]	Concentration at 90% Inhibition Fm [2, 13]	IC90 [2] [µg/mL]	IC90 (Diplodia maydis (Dm); [14]) [µg/mL]	IC90 (Diplodia maydis (Dm); [15]) [µg/mL]	MIC (C. parapsilosis; [16]) [µg/mL]	MIC (C. parapsilosis; [17]) [µg/mL]	also measured
COCCCO[C@@H](Cn1c(=O)n([C@@H](C)C(=O)NC(C)C)c(=O)c2c(C)c(-n3nccn3)sc21)c1cc(F)ccc1OC [Compound I-86, (S)-2-(1-((R)-2-(5-fluoro-2-methoxyphenyl)-2-(3-methoxy-propoxy)ethyl)-5-methyl-2,4-dioxo-6-(2H-1,2,3-triazol-2-yl)-1,4-dihydrothieno[2,3-d]pyrimidin-3(2H)-yl)-N-isopropylpropanamide]	10 (≈ 16.6 µM)	> 50	1 to 5	1 to 5	> 50	> 50	10 to 40	10 to 40	2.1 to 4 (≈ 3.48 to 6.64 µM)	2.01 to 4 (≈ 3.34 to 6.64 µM)	2 (≈ 3.32 µM)	2 (≈ 3.32 µM)	0.4 (≈ 0.664 µM)	0.4 (≈ 0.664 µM)	AA (compound concentration of 0.08 ppm at 90% inhibition of fungal pathogens)	0.08 (≈ 0.133 µM)	2 (≈ 3.32 µM)	2 (≈ 3.32 µM)	2.1 to 4 (≈ 3.48 to 6.64 µM)	1.01 to 2 (≈ 1.68 to 3.32 µM)	–
COCCCO[C@@H](Cn1c(=O)n([C@H](C)C(=O)NC(C)C)c(=O)c2c(C)c(-n3nccn3)sc21)c1cc(F)ccc1OC [Compound I-87, (R)-2-(1-((R)-2-(5-fluoro-2-methoxyphenyl)-2-(3-methoxy-propoxy)ethyl)-5-methyl-2,4-dioxo-6-(2H-1,2,3-triazol-2-yl)-1,4-dihydrothieno[2,3-d]pyrimidin-3(2H)-yl)-N-isopropylpropanamide]	–	–	1 to 5	1 to 5	–	–	5 to 10	5 to 10	–	–	–	–	–	–	–	–	–	–	–	–	IC90 [1, 18]: 0.08 µg/mL (≈ 0.133 µM); IC90 [1, 19]: 0.08 µg/mL (≈ 0.133 µM); IC90 (Septoria tritici (St); [20]): 10 µg/mL (≈ 16.6 µM); IC90 (Septoria tritici (St); [21]): > 50 µg/mL; MIC (C. albicans; [22]): 1.1 to 2 µg/mL (≈ 1.83 to 3.32 µM); MIC (C. albicans; [23]): 2.01 to 4 µg/mL (≈ 3.34 to 6.64 µM); IC90 (Rhizoctonia solani (Rs); [24]): 0.08 µg/mL (≈ 0.133 µM); IC90 (Rhizoctonia solani (Rs); [25]): 0.08 µg/mL (≈ 0.133 µM); IC90 (Botrtyis cinerea (Bc); [26]): 0.08 µg/mL (≈ 0.133 µM); IC90 (Botrtyis cinerea (Bc); [27]): 0.08 µg/mL (≈ 0.133 µM); IC90 [2, 13]: 0.08 µg/mL (≈ 0.133 µM); IC90 [2, 28]: 0.08 µg/mL (≈ 0.133 µM); IC90 (Diplodia maydis (Dm); [29]): 0.4 µg/mL (≈ 0.664 µM); IC90 (Diplodia maydis (Dm); [30]): 0.4 µg/mL (≈ 0.664 µM); MIC (C. parapsilosis; [31]): 0.25 to 1 µg/mL (≈ 0.415 to 1.66 µM); MIC (C. parapsilosis; [32]): 1.01 to 2 µg/mL (≈ 1.68 to 3.32 µM)
COc1ccc(F)cc1[C@H](Cn1c(=O)n([C@@H](C)C(=O)NC(C)C)c(=O)c2c(C)c(-n3nccn3)sc21)OCCO [Compound I-88, (S)-2-(1-((R)-2-(5-fluoro-2-methoxyphenyl)-2-(2-hydroxyethoxy)ethyl)-5-methyl-2,4-dioxo-6-(2H-1,2,3-triazol-2-yl)-1,4-dihydro-thieno[2,3-d]pyrimidin-3(2H)-yl)-N-isopropylpropanamide]	2 (≈ 3.48 µM)	2 (≈ 3.48 µM)	1 to 5	0.3 to 1	2 (≈ 3.48 µM)	10 (≈ 17.4 µM)	5 to 10	5 to 10	1.1 to 2 (≈ 1.91 to 3.48 µM)	2.01 to 4 (≈ 3.5 to 6.96 µM)	0.08 (≈ 0.139 µM)	0.08 (≈ 0.139 µM)	2 (≈ 3.48 µM)	2 (≈ 3.48 µM)	AA (compound concentration of 0.08 ppm at 90% inhibition of fungal pathogens)	0.08 (≈ 0.139 µM)	0.4 (≈ 0.696 µM)	0.4 (≈ 0.696 µM)	1.1 to 2 (≈ 1.91 to 3.48 µM)	1.01 to 2 (≈ 1.76 to 3.48 µM)	–
COc1ccc(F)cc1[C@H](Cn1c(=O)n([C@H](C)C(=O)NC(C)C)c(=O)c2c(C)c(-n3nccn3)sc21)OCCO [Compound I-89, (R)-2-(1-((R)-2-(5-fluoro-2-methoxyphenyl)-2-(2-hydroxy-ethoxy)ethyl)-5-methyl-2,4-dioxo-6-(2H-1,2,3-triazol-2-yl)-1,4-dihydrothieno[2,3-d]pyrimidin-3(2H)-yl)-N-isopropylpropanamide]	2 (≈ 3.48 µM)	2 (≈ 3.48 µM)	1 to 5	1 to 5	> 50	> 50	10 to 40	5 to 10	2.1 to 4 (≈ 3.65 to 6.96 µM)	2.01 to 4 (≈ 3.5 to 6.96 µM)	2 (≈ 3.48 µM)	2 (≈ 3.48 µM)	0.4 (≈ 0.696 µM)	0.4 (≈ 0.696 µM)	AA (compound concentration of 0.08 ppm at 90% inhibition of fungal pathogens)	0.08 (≈ 0.139 µM)	2 (≈ 3.48 µM)	10 (≈ 17.4 µM)	2.1 to 4 (≈ 3.65 to 6.96 µM)	1.01 to 2 (≈ 1.76 to 3.48 µM)	–
COc1ccc(F)cc1[C@H](Cn1c(=O)n(C(C)(C)C(=O)NC(C)C)c(=O)c2c(C)c(-n3nccn3)sc21)OCCC(N)=O [Compound I-90, (R)-2-(1-(2-(3-amino-3-oxopropoxy)-2-(5-fluoro-2-metho-xyphenyl)ethyl)-5-methyl-2,4-dioxo-6-(2H-1,2,3-triazol-2-yl)-1,4-dihydro-thieno[2,3-d]pyrimidin-3(2H)-yl)-N-isopropyl-2-methylpropanamide]	–	–	1 to 5	1 to 5	–	–	10 to 40	10 to 40	–	–	–	–	–	–	–	–	–	–	–	–	IC90 [1, 18]: 0.4 µg/mL (≈ 0.65 µM); IC90 [1, 19]: 0.4 µg/mL (≈ 0.65 µM); IC90 (Septoria tritici (St); [20]): > 50 µg/mL; IC90 (Septoria tritici (St); [21]): > 50 µg/mL; MIC (C. albicans; [22]): 2.1 to 4 µg/mL (≈ 3.41 to 6.5 µM); MIC (C. albicans; [23]): 0.25 to 1 µg/mL (≈ 0.406 to 1.62 µM); IC90 (Rhizoctonia solani (Rs); [24]): 2 µg/mL (≈ 3.25 µM); IC90 (Rhizoctonia solani (Rs); [25]): 2 µg/mL (≈ 3.25 µM); IC90 (Botrtyis cinerea (Bc); [26]): 2 µg/mL (≈ 3.25 µM); IC90 (Botrtyis cinerea (Bc); [27]): 2 µg/mL (≈ 3.25 µM); IC90 [2, 13]: 0.4 µg/mL (≈ 0.65 µM); IC90 [2, 28]: 0.4 µg/mL (≈ 0.65 µM); IC90 (Diplodia maydis (Dm); [29]): > 50 µg/mL; IC90 (Diplodia maydis (Dm); [30]): > 50 µg/mL; MIC (C. parapsilosis; [31]): 2.1 to 4 µg/mL (≈ 3.41 to 6.5 µM); MIC (C. parapsilosis; [32]): 0.25 to 1 µg/mL (≈ 0.406 to 1.62 µM)
